ChEMBL document CHEMBL1201862, “PubChem BioAssay data set” (2004)
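In this assay, cells in 96-well plates receive the compound at five concentrations for 48 hours. Endpoints are linearly interpolated between the surrounding concentrations. GI50 is the concentration that inhibits growth by half.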 The source made the active and inactive calls. Cut-off read from the data, not from the text of the source: active = GI50 up to about 1.1 µM and inactive = higher.

Legend:
Experiment in all cases: NCI-60 cell line screen, 48 h
CCRF-CEM = system: CCRF-CEM
UO-31 = system: UO-31
CAKI-1 = system: CAKI-1
COLO 205 = system: COLO 205
A549 = system: A549
NCI-H226 = system: NCI-H226
MDA-MB-231 = system: MDA-MB-231
U-251 = system: U-251
OVCAR-4 = system: OVCAR-4
Malme-3M = system: Malme-3M
SF-295 = system: SF-295
EKVX = system: EKVX
ACHN = system: ACHN
MCF7 = system: MCF7
Hs-578T = system: Hs-578T
TK-10 = system: TK-10
SW-620 = system: SW-620
BT-549 = system: BT-549
NCI/ADR-RES = system: NCI/ADR-RES
HCT-15 = system: HCT-15
SK-MEL-2 = system: SK-MEL-2
SNB-19 = system: SNB-19
HOP-62 = system: HOP-62
MOLT-4 = system: MOLT-4
SN12C = system: SN12C
IGROV-1 = system: IGROV-1
HT-29 = system: HT-29
T47D = system: T47D
HCT-116 = system: HCT-116
NCI-H23 = system: NCI-H23
UACC-62 = system: UACC-62
786-0 = system: 786-0
SF-539 = system: SF-539
HL-60 = system: HL-60
OVCAR-8 = system: OVCAR-8
PC-3 = system: PC-3
LOX IMVI = system: LOX IMVI
DU-145 = system: DU-145
SNB-75 = system: SNB-75
SK-MEL-5 = system: SK-MEL-5
MDA-N = system: MDA-N
HCC 2998 = system: HCC 2998
OVCAR-5 = system: OVCAR-5
UACC-257 = system: UACC-257
SK-MEL-28 = system: SK-MEL-28
K562 = system: K562
KM12 = system: KM12
NCI-H460 = system: NCI-H460
SF-268 = system: SF-268
SK-OV-3 = system: SK-OV-3
NCI-H522 = system: NCI-H522
M14 = system: M14
RXF 393 = system: RXF 393
OVCAR-3 = system: OVCAR-3
RPMI-8226 = system: RPMI-8226
MDA-MB-435 = system: MDA-MB-435
SR = system: SR

CC1(C)CC(O)C(C)(C)[C@@H](O)C1 (stereo partly specified)
GI50 (CCRF-CEM): > 100 µM (inactive)
GI50 (UO-31): > 100 µM (inactive)
GI50 (CAKI-1): > 100 µM (inactive)
GI50 (COLO 205): > 100 µM (inactive)
GI50 (A549): > 100 µM (inactive)
GI50 (NCI-H226): > 100 µM (inactive)
GI50 (MDA-MB-231): > 100 µM (inactive)
GI50 (U-251): > 100 µM (inactive)
GI50 (OVCAR-4): > 100 µM (inactive)
GI50 (Malme-3M): > 100 µM (inactive)
GI50 (SF-295): > 100 µM (inactive)
GI50 (EKVX): > 100 µM (inactive)
GI50 (ACHN): > 100 µM (inactive)
GI50 (MCF7): > 100 µM (inactive)
GI50 (Hs-578T): > 100 µM (inactive)
GI50 (TK-10): > 100 µM (inactive)
GI50 (SW-620): > 100 µM (inactive)
GI50 (BT-549): > 100 µM (inactive)
GI50 (NCI/ADR-RES): > 100 µM (inactive)
GI50 (HCT-15): > 100 µM
GI50 (SK-MEL-2): > 100 µM (inactive)
GI50 (SNB-19): > 100 µM (inactive)
GI50 (HOP-62): > 100 µM (inactive)
GI50 (MOLT-4): > 100 µM (inactive)
GI50 (SN12C): > 100 µM (inactive)
GI50 (IGROV-1): > 100 µM (inactive)
GI50 (HT-29): > 100 µM (inactive)
GI50 (T47D): > 100 µM (inactive)
GI50 (HCT-116): > 100 µM (inactive)
GI50 (NCI-H23): > 100 µM (inactive)
GI50 (UACC-62): > 100 µM (inactive)
GI50 (786-0): > 100 µM (inactive)
GI50 (SF-539): > 100 µM (inactive)
GI50 (HL-60): > 100 µM (inactive)
GI50 (OVCAR-8): > 100 µM (inactive)
GI50 (PC-3): > 100 µM (inactive)
GI50 (LOX IMVI): > 100 µM (inactive)
GI50 (DU-145): > 100 µM (inactive)
GI50 (SNB-75): > 100 µM (inactive)
GI50 (SK-MEL-5): > 100 µM (inactive)
GI50 (MDA-N): > 100 µM (inactive)
GI50 (HCC 2998): > 100 µM (inactive)
GI50 (OVCAR-5): > 100 µM (inactive)
GI50 (UACC-257): > 100 µM (inactive)
GI50 (SK-MEL-28): > 100 µM (inactive)
GI50 (K562): > 100 µM (inactive)
GI50 (KM12): > 100 µM (inactive)
GI50 (NCI-H460): > 100 µM (inactive)
GI50 (SF-268): > 100 µM (inactive)
GI50 (SK-OV-3): > 100 µM (inactive)
GI50 (NCI-H522): > 100 µM (inactive)
GI50 (M14): > 100 µM (inactive)
GI50 (RXF 393): 28.7 µM (inactive)

Cc1csc2nc3[nH]ncc3c(=O)n12
GI50 (CCRF-CEM): > 100 µM (inactive)
GI50 (UO-31): 81.8 µM (inactive)
GI50 (CAKI-1): > 100 µM (inactive)
GI50 (COLO 205): > 100 µM (inactive)
GI50 (A549): > 100 µM (inactive)
GI50 (NCI-H226): 40.6 µM (inactive)
GI50 (MDA-MB-231): > 100 µM (inactive)
GI50 (U-251): > 100 µM (inactive)
GI50 (OVCAR-4): > 100 µM (inactive)
GI50 (Malme-3M): > 100 µM (inactive)
GI50 (SF-295): > 100 µM (inactive)
GI50 (EKVX): > 100 µM (inactive)
GI50 (ACHN): > 100 µM (inactive)
GI50 (MCF7): > 100 µM (inactive)
GI50 (Hs-578T): 28.4 µM (inactive)
GI50 (SW-620): > 100 µM (inactive)
GI50 (BT-549): > 100 µM (inactive)
GI50 (NCI/ADR-RES): 66.8 µM (inactive)
GI50 (HCT-15): > 100 µM
GI50 (SK-MEL-2): > 100 µM (inactive)
GI50 (SNB-19): > 100 µM (inactive)
GI50 (HOP-62): > 100 µM (inactive)
GI50 (MOLT-4): > 100 µM (inactive)
GI50 (SN12C): > 100 µM (inactive)
GI50 (IGROV-1): > 100 µM (inactive)
GI50 (HT-29): > 100 µM (inactive)
GI50 (T47D): > 100 µM (inactive)
GI50 (HCT-116): > 100 µM (inactive)
GI50 (NCI-H23): > 100 µM (inactive)
GI50 (UACC-62): > 100 µM (inactive)
GI50 (OVCAR-3): > 100 µM (inactive)
GI50 (786-0): > 100 µM (inactive)
GI50 (RPMI-8226): > 100 µM (inactive)
GI50 (SF-539): > 100 µM (inactive)
GI50 (OVCAR-8): > 100 µM (inactive)
GI50 (PC-3): > 100 µM (inactive)
GI50 (LOX IMVI): > 100 µM (inactive)
GI50 (SNB-75): 61 µM (inactive)
GI50 (SK-MEL-5): > 100 µM (inactive)
GI50 (MDA-N): > 100 µM (inactive)
GI50 (MDA-MB-435): > 100 µM (inactive)
GI50 (HCC 2998): > 100 µM (inactive)
GI50 (OVCAR-5): > 100 µM (inactive)
GI50 (UACC-257): > 100 µM (inactive)
GI50 (SK-MEL-28): > 100 µM (inactive)
GI50 (K562): > 100 µM (inactive)
GI50 (KM12): > 100 µM (inactive)
GI50 (NCI-H460): > 100 µM (inactive)
GI50 (SF-268): > 100 µM (inactive)
GI50 (SK-OV-3): > 100 µM (inactive)
GI50 (NCI-H522): > 100 µM (inactive)
GI50 (M14): > 100 µM (inactive)
GI50 (SR): > 100 µM (inactive)
